Experimental data: patent US20100204113A1, “USE OF STRESSCOPIN-RELATED PEPTIDE AS A THERAPEUTIC AGENT” (priority 2007, published 2010)
No end group written: not given here.

System: drug-resistant Mycobacterium tuberculosis
Conditions: peptide 10 micrograms per ml, seven days

Substance: HPGSRIVLSLDVPIGLLQILLEQARARAAREQATTNARILARV-NH2 [Stresscopin-related peptide]
- % inhibition: 0.0%
